From ChEMBL document CHEMBL4813945, “Discovery and development of novel pyrimidine and pyrazolo/thieno-fused pyrimidine derivatives as potent and orally active inducible nitric oxide synthase dimerization inhibitor with efficacy for arthritis” (Eur J Med Chem, 2021)

Tests used:
RAW264.7 [1] = experiment: Antiinflammatory activity against mouse RAW264.7 cells assessed as inhibition of LPS-induced NO production at 10 uM preincubated for 1 hrs followed by LPS stimulation and measured after 24 hrs by Griess assay relative to control; assay type: functional; details: time 25 hrs
L02 = experiment: Antiinflammatory activity against human L02 assessed as inhibition of LPS-induced NO production preincubated for 1 hrs followed by LPS stimulation and measured after 24 hrs by Griess assay relative to control; assay type: functional, cell-based
RAW264.7 [2] = experiment: Cytotoxicity against mouse RAW264.7 cells at 20 uM measured after 24 hrs; assay type: cell-based; details: raw264.7, 24 h

| Compound | inhibition at 10 µM (RAW264.7 [1]) [%] | IC50 (L02) [µM] | Activity (RAW264.7 [2]) |
| --- | --- | --- | --- |
| Fc1ccccc1CCNc1nc(/C=C/c2ccccc2)nc2ccsc12 | 29.8 | > 1000 | Non-Toxic |
| COc1ccc(Nc2nc(/C=C/c3ccccc3)nc3ccsc23)cc1 | 21.9 | > 1000 | Non-Toxic |
| CCCc1nn(C)c2c(NC3CC3)nc(/C=C/c3cccnc3)nc12 | 49.5 | 261 | Non-Toxic |
| Fc1ccc(CNc2nc(/C=C/c3ccccc3)nc3ccsc23)cc1 | 23.4 | > 1000 | Non-Toxic |
| Brc1ccc(Nc2nc(/C=C/c3ccccc3)nc3ccsc23)cc1 | 19.5 | > 1000 | Non-Toxic |
| CCCc1nn(C)c2c(NCCc3ccccc3)nc(/C=C/c3cccnc3)nc12 | 77.4 | > 1000 | Non-Toxic |
| CNc1nc(/C=C/c2ccccc2)nc2ccsc12 | 21.9 | > 1000 | Non-Toxic |
| Brc1cccc(Nc2nc(/C=C/c3ccccc3)nc3ccsc23)c1 | 28.8 | > 1000 | Non-Toxic |
| CCCc1nn(C)c2c(NCCc3cccc(Cl)c3)nc(/C=C/c3nc(C)c(C)nc3C)nc12 | 68.8 | 786 | Non-Toxic |
| CCCc1nn(C)c2c(NCCc3cccc(Cl)c3)nc(/C=C/c3cccnc3)nc12 | 66.7 | > 1000 | Non-Toxic |
| Fc1ccccc1CNc1nc(/C=C/c2ccco2)nc2ccsc12 | 11.7 | > 1000 | Non-Toxic |
| CCCCNc1nc(/C=C/c2ccccc2)nc2ccsc12 | 22.4 | > 1000 | Non-Toxic |
| CCCc1nn(C)c2c(NCc3ccc(F)cc3)nc(/C=C/c3ccc[n+]([O-])c3)nc12 | 64.6 | < 40 | Non-Toxic |
| COc1cc(/C=C/c2nc(Nc3ccc(C(C)C)cc3)c3sccc3n2)cc(OC)c1OC | 13.3 | 370 | Non-Toxic |
| COc1cc(/C=C/c2nc(O)nc(NCCc3ccccc3)n2)cc(OC)c1OC | 57 | < 40 | Non-Toxic |
| CCCc1nn(C)c2c(NC(C)C)nc(CCc3cccnc3)nc12 | 30.2 | 514 | Non-Toxic |

| Compound | inhibition at 10 µM (RAW264.7 [1]) [%] | IC50 (L02) [µM] | Activity (RAW264.7 [2]) |
| --- | --- | --- | --- |
| COc1cc(/C=C/c2nc(NCc3ccco3)c3sccc3n2)cc(OC)c1OC | 46.5 | 189 | Non-Toxic |
| COc1cc(/C=C/c2nc(Cl)cc(NCCc3ccccc3)n2)cc(OC)c1OC | 31.2 | < 40 | Non-Toxic |
| Fc1ccc(CNc2nc(/C=C/c3ccco3)nc3ccsc23)cc1 | 59.2 | > 1000 | Non-Toxic |
| CNc1nc(/C=C/c2ccco2)nc2ccsc12 | 29.1 | 811 | Non-Toxic |
| COc1cc(/C=C/c2nc(Nc3ccc(C)cc3)c3sccc3n2)cc(OC)c1OC | 19.2 | < 40 | Non-Toxic |
| CN1CCN(c2nc(/C=C/c3ccco3)nc3ccsc23)CC1 | 43.9 | > 1000 | Non-Toxic |
| COc1cc(/C=C/c2nccc(NCCc3ccccc3)n2)cc(OC)c1OC | 85 | < 40 | Non-Toxic |
| C(=C\c1ccco1)/c1nc(N2CCOCC2)c2sccc2n1 | 28.1 | > 1000 | Non-Toxic |
| COc1cccc(CNc2nc(/C=C/c3ccccc3)nc3ccsc23)c1 | 30.7 | > 1000 | Non-Toxic |
| CN1CCN(c2nc(/C=C/c3ccccc3)nc3ccsc23)CC1 | 18.5 | 198 | Non-Toxic |
| CCCc1nn(C)c2c(NC3CC3)nc(/C=C/c3ccc[n+]([O-])c3)nc12 | 29.2 | 580 | Non-Toxic |
| CCCc1nn(C)c2c(NCCc3cccc(Cl)c3)nc(CCc3cccnc3)nc12 | 37.5 | 612 | Non-Toxic |
| CC(C)CNc1nc(/C=C/c2ccccc2)nc2ccsc12 | 25 | > 1000 | Non-Toxic |
| CCCc1nn(C)c2c(N3CCS(=O)(=O)CC3)nc(/C=C/c3ccc[n+]([O-])c3)nc12 | 3.13 | > 1000 | Non-Toxic |
| CC(C)Nc1nc(/C=C/c2ccccc2)nc2ccsc12 | 22.9 | > 1000 | Non-Toxic |
| CCCc1nn(C)c2c(N3CCOCC3)nc(/C=C/c3ccc[n+]([O-])c3)nc12 | 20.8 | 817 | Non-Toxic |
